Drawing on ChEMBL document CHEMBL5726417, “Therapeutic agent for pain” (2017), this text covers IC50 for four compounds.

The experiment addresses 11-beta-hydroxysteroid dehydrogenase 1 (Rattus norvegicus, UniProt P16232). As to the kind of experiment: Inhibition Assay: The procedure for measuring the 11β-HSD1-inhibitory activity is as follows. The enzyme reaction and the measurement were carried out using a 384-well plate. The enzyme was prepared in accordance with Journal of Biological Chemistry, 2001, Vol. 276, p. 21343-21350. The reaction was carried out by adding a test compound at various concentrations to a reaction liquid consisting of a 5 mM phosphate buffer (pH 6.6), 200 nM cortisone, 40 μM reduced nicotinamide adenine dinucleotide phosphate (NADPH), and rat recombinant 11β-HSD1, followed by incubating at room temperature for one hour (10 μl/well). The test compound was prepared by dissolving in dimethyl sulfoxide (DMSO) such that a DMSO concentration reached 1% in the reaction liquid. After the enzyme reaction was completed, the enzyme inhibitory action was measured by detecting cortisol using a homogeneous time-resolved fluorescence (HTRF) method. Each of a d2-labeled cortisol containing 400 μM carbenoxolone and a cryptate-labeled cortisol antibody (CIS Bio International Co., Ltd.) was added at 5 μl/well, followed by incubating at room temperature for 2 hours, and then the fluorescence intensity was measured using a fluorophotometer (trade name: ARVO HTS 1420, Perkin Elmer/Wallac), and the enzyme inhibitory activity was calculated from the fluorescence intensity ratio of two wavelengths (665 nm/620 nm).The measurement results were calculated by averaging the values of 3 wells of the same condition. The ratio when DMSO was added instead of the test compound was taken as 0% and the ratio when 11β-HSD1 was not added was taken as 100%, thereby calculating the 50% inhibition concentration of the test compound as IC50 of the compound inhibitory activity.

Molecules are shown by their SMILES.

Chain of 11-beta-hydroxysteroid dehydrogenase 1 (P16232 whole entry): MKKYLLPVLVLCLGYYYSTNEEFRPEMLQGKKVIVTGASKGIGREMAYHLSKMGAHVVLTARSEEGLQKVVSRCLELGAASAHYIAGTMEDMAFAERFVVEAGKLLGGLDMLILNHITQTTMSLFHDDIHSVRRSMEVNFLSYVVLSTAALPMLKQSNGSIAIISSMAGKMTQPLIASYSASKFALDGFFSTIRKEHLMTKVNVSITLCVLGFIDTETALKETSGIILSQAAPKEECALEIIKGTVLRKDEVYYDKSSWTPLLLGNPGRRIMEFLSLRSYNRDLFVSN

Regarding `Cn1c(-c2ccc(F)cc2Cl)nnc1C(C)(C)Oc1c(F)cc(F)cc1F`, the IC50 is 52 nM.
The value for `CCn1c(-c2ccc(C(N)=O)cc2)nnc1C(C)(C)Oc1c(F)cc(Cl)cc1F` was 70 nM.
The result for `CC(C)n1c(-c2ccc(C(N)=O)cc2F)nnc1C(C)(C)Oc1c(F)cc(F)cc1F` reads 23 nM; that for `Cn1c(-c2ccc(C(N)=O)cc2F)nnc1C(C)(C)Oc1c(F)cc(Cl)cc1F` [CLOFUTRIBEN], 135 nM.
